Laboratory results taken from patent US9363996B2, “Compositions and method for blocking ethylene response in field crops using 3-(cy-clopropyl-l-enyl)-propanoic salt” (Yissum Research Development Company of the Hebrew …, priority 2009, dated 2016).

System: tobacco seedlings
Assay: Ethylene-induced chlorophyll degradation in tobacco seedling leaves
Assay type: in vivo, tobacco (Nicotiana tabacum var. 'Samsun')
Description: (1) Abscission—This is a very sensitive model system for studying the effects of plant hormones. Ethylene induces the process of abscission, while auxin delays it. In the laboratory the experimental system is based on plant organ explants, which include the abscission zone. Abscission is induced by exposure to ethylene and at the termination of the experiment the number of abscised organs, usually either leaf blades or petioles are counted and the fraction of abscission is calculated. In the case of fruit, the decrease in fruit retention force is analyzed. In cotton, when WS-CPD (the ethylene-action antagonist herein disclosed) is tested, the whole plants or explants are pretreated by spraying with the antagonist, dissolved in a phosphate buffer solution (10-20 mM, pH 7.0) including 0.1% commercially available Kinetic™ as surfactant, and left to incubate for a predetermined time, usually between 6 and 24 h. The plants or explants are then further exposed for 24 h to ethylene gas (5 to 20 μL L^−1). The plants or explants are then ventilated and incubated for the required time under controlled conditions. At the end of the experiment the percentage of abscission is determined. (2) Chlorophyll degradation—This is a standard model for studying senescence. Plant material (whole plants, excised leaves or leaf discs) are pretreated. In cotton, tobacco and wheat, when WS-CPD is tested, the whole plants or explants are pretreated by spraying with the antagonist, dissolved in phosphate buffer solution (10-20 mM, pH 7.0) including 0.1% commercially available Kinetic™ surfactant, and left to incubate for a predetermined time, usually between 6 and 241. The plants or explants are then further exposed for 24 h to ethylene gas (1 to 100 μL L^−1), or sprayed with Ethephon™ (wheat; 250 to 750 μL L^−1). The plants or explants are then ventilated and incubated for the required time under controlled conditions. At the end of the experiment a dimethylsulfoxide (DMSO) extract of the plant tissue is prepared, and the chlorophyll content of the extract is determined by spectrophotometric analysis. The chlorophyll content is reported either on a fresh, dry weight basis, or on a surface area basis. (3) Epinasty—This is also one of the classical methods for studying ethylene effects in plants. The extent of ethylene-induced epinasty of leaves is determined by measuring the change of the angle between the petiole and the stem shoot or blade. After exposure of the intact plant to ethylene, the upright grown leaves bend downward. The increase in the angle values (degrees) between petiole and the stem is used as a measure of the effect of the ethylene. […]

SMILES: O=C([O-])CCC1=CC1.[Na+] [WS-CPD, 3-cyclopropyl-1-enyl-propanoic sodium salt]
- ethylene-induced chlorophyll degradation (WS-CPD 14 μg mL^−1 pretreatment spray, young and mature leaves): completely reversed
- ethylene-induced chlorophyll degradation (higher concentrations of WS-CPD): less effective
